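Values below derive from 48-hour exposures of cells grown in 96-well plates, with endpoints linearly interpolated between the two concentrations bracketing the appropriate inhibition level. GI50 marks 50% less growth. TGI: total growth inhibition.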
Tests used:
Test in all cases: NCI anticancer screen, dose series, 48 h
U251 CNS = tested on: U251 CNS
UACC-62 melanoma = tested on: UACC-62 melanoma
OVCAR-8 ovarian = tested on: OVCAR-8 ovarian
NCI-H522 lung = tested on: NCI-H522 lung
UACC-257 melanoma = tested on: UACC-257 melanoma
SK-OV-3 ovarian = tested on: SK-OV-3 ovarian
SK-MEL-2 melanoma = tested on: SK-MEL-2 melanoma
SK-MEL-5 melanoma = tested on: SK-MEL-5 melanoma
RXF 393 renal = tested on: RXF 393 renal
A549 NSCLC = tested on: A549 NSCLC
786-0 renal = tested on: 786-0 renal
HL-60(TB) leukemia = tested on: HL-60(TB) leukemia
A498 renal = tested on: A498 renal
EKVX NSCLC = tested on: EKVX NSCLC
HCT-116 colon = tested on: HCT-116 colon
SF-295 CNS = tested on: SF-295 CNS
M14 melanoma = tested on: M14 melanoma
NCI/ADR-RES ovarian = tested on: NCI/ADR-RES ovarian
MOLT-4 leukemia = tested on: MOLT-4 leukemia
MALME-3M melanoma = tested on: MALME-3M melanoma
OVCAR-3 ovarian = tested on: OVCAR-3 ovarian
UO-31 renal = tested on: UO-31 renal
SF-539 CNS = tested on: SF-539 CNS
MDA-MB-435 = tested on: MDA-MB-435
T-47D breast = tested on: T-47D breast
HOP-92 NSCLC = tested on: HOP-92 NSCLC
RPMI-8226 leukemia = tested on: RPMI-8226 leukemia
NCI-H226 lung = tested on: NCI-H226 lung
SW-620 colon = tested on: SW-620 colon

## Cc1ccc(S(=O)(=O)NC(CCC(=O)Nc2ccccc2)C(=O)Nc2ccccc2)cc1 (stereo not drawn)
U251 CNS
  GI50: 0.326 µM
  TGI: 1.49 µM
UACC-62 melanoma
  GI50: 0.172 µM
  TGI: 1.12 µM
OVCAR-8 ovarian
  GI50: 0.5 µM
  TGI: 2.57 µM
NCI-H522 lung
  GI50: 0.276 µM
  TGI: 1.14 µM
UACC-257 melanoma
  GI50: 0.464 µM
  TGI: 2.36 µM
SK-OV-3 ovarian
  GI50: 0.47 µM
  TGI: 2.39 µM
SK-MEL-2 melanoma
  GI50: 0.427 µM
  TGI: 1.47 µM
SK-MEL-5 melanoma
  GI50: 0.226 µM
  TGI: 0.656 µM
RXF 393 renal
  GI50: 0.662 µM
  TGI: 2.25 µM
A549 NSCLC
  GI50: 0.319 µM
  TGI: 1.76 µM
786-0 renal
  GI50: 0.491 µM
  TGI: 2.04 µM
HL-60(TB) leukemia
  GI50: 0.55 µM
  TGI: 3.08 µM
A498 renal
  GI50: 0.142 µM
  TGI: 0.897 µM
EKVX NSCLC
  GI50: 0.401 µM
  TGI: 2.3 µM
HCT-116 colon
  GI50: 0.273 µM
  TGI: 1.31 µM
SF-295 CNS
  GI50: 0.362 µM
  TGI: 1.69 µM
M14 melanoma
  GI50: 0.404 µM
  TGI: 3.62 µM
NCI/ADR-RES ovarian
  GI50: 0.475 µM
  TGI: 2.19 µM
MOLT-4 leukemia
  GI50: 0.375 µM
  TGI: > 100 µM
MALME-3M melanoma
  GI50: 0.745 µM
  TGI: 2.51 µM
OVCAR-3 ovarian
  GI50: 0.419 µM
  TGI: 1.35 µM
UO-31 renal
  GI50: 0.274 µM
  TGI: 3.39 µM
SF-539 CNS
  GI50: 0.283 µM
  TGI: 0.89 µM
MDA-MB-435
  GI50: 0.437 µM
  TGI: 2.06 µM
T-47D breast
  GI50: 0.206 µM
  TGI: 0.934 µM
HOP-92 NSCLC
  GI50: 0.157 µM
  TGI: 0.544 µM
RPMI-8226 leukemia
  GI50: 0.309 µM
  TGI: 1.58 µM
NCI-H226 lung
  GI50: 0.447 µM
  TGI: 2.59 µM
SW-620 colon
  GI50: 0.719 µM
  TGI: 2.93 µM
